Here are results for two compounds from patent US20050043369A1, “Bactericidal antimicrobial methods and compositions for use in treating gram positive infections” (Protez Pharmaceuticals Inc., priority 2000, published 2005).

For assay [1], the system named is S. pneumoniae. Put plainly: Bactericidal activity (MBC) of translational inhibitors with or without INF 401 in S. pneumoniae. The class given is cell-based, Streptococcus pneumoniae. Particulars: antibiotic alone. An excerpt: It would be desirable that an antibiotic potentiator of the present invention is active not only in S. aureus but also in other bacterial pathogens. The inventors have begun studies to investigate whether INF 401 can also potentiate the activity of translational inhibitors in another Gram positive pathogen, S. pneumoniae.

For assay [2], the system named is S. aureus strain ATTC 29213. In words: Characterization of killing by INF 401 plus chloramphenicol (viability, morphology, protein, DNA, metal dependence). Particulars: chloramphenicol 20 μg/ml or INF 401 2 μg/ml alone. The class given is cell-based, Staphylococcus aureus.
Protocol: Time kill study of the effect of NF 401 in combination with chloramphenicol. Exponentially growing cells (S. aureus strain 29213) were diluted to OD600 0.1 in LB supplemented with 20 μg/ml of chloramphenicol (Cm) in the presence or absence of INF 401 (2 μg/ml) and incubated with shaking at 37° C. At indicated time points cells were harvested, washed with LB and plated on LB agar plates. Number of colony forming units (CFUs) was determined after overnight incubation.
Time kill study of the effect of iron on the bactericidal activity of INF 401. S. aureus strain 29213 was grown overnight in iron-limited Staphylococcal Siderophore Detection (SSD) medium (Heinrichs, 1999) supplemented with 2 μM FeCl3, washed with SSD and diluted 1:100 into the fresh medium containing 0, 2 or 50 μm FeCl3. Exponentially growing cells were diluted to OD600 0.01 in the corresponding medium supplemented when indicated with 20 μg/ml of chloramphenicol (Cm) and 2 μg/ml of INF 401. At 0, 1, 2 and 3.5 hours cells were plated in different dilutions to the LB agar plates and number of colony forming units (CFUs) was counted next day.
Assay [3] has as its system S. aureus SA 29213. In words: 55Fe transport assay (intracellular iron accumulation). The class given is cell-based, Staphylococcus aureus. Particulars: LB, ^55FeCl3 30 min 37° C.; chloramphenicol alone or INF 401 in absence of antibiotic. As to the method:
Next, investigated was whether INF 401 affects intracellular iron accumulation. An ^55Fe transport assay (modified from Sebulsky, 2000) was used to examine the ability of INF 401 to transport iron inside the cell. Briefly, exponentially growing cells were diluted to OD600 0.1 in LB, incubated with ^55FeCl3 for 30 min at 37° C., washed and counted in scintillation fluid using the tritium channel of a scintillation system. […] However, the presence of INF 401 in either the absence or presence of antibiotic led to a dramatic increase in iron accumulation (209,215 and 231,621 DPM, respectively).
Activity of the compound is depicted as the minimal concentration required to kill 99.9% of S. aureus in the presence of 4 μg/ml erythromycin.

The test system of assay [4] is S. aureus (SA1199). Put plainly: Time kill studies (CFU counts). The following applies: antibiotic 1×MIC + 5 μg/ml INF 401. The class given is cell-based, Staphylococcus aureus. The method, then: FIG. 5A, FIG. 5B and FIG. 5C. […]
The initial inoculum number was determined by plating an appropriate dilution on LB agar plates and determining the number of colony forming units (CFUs). At different time points an aliquot was withdrawn from each tube and cell viability was determined by plating an appropriate dilution and counting CFUs after overnight incubation.

The test system of assay [5] is S. aureus SA1199. Put plainly: Checkerboard two-fold broth microdilution, MIC and MBC. The class given is cell-based, Staphylococcus aureus. The following applies: for MBC: antibiotic alone. The method, then:
Checkerboard titration was performed with INF 401 and erythromycin to quantitate the effects of the combination on Staphylococcal growth using two-fold serial broth microdilution. After overnight incubation, cells were transferred to fresh medium, as described above, to determine those combinations that were bactericidal to S. aureus. […] Although not determined according to NCCLS recommended procedures ([…]), the inventors considered this the Minimal Bactericidal Concentration (MBC).
The inventors next evaluated whether INF 401 was bactericidal in combination with other protein synthesis inhibitors which are bacteriostatic to S. aureus. Checkerboard studies were performed with two-fold dilutions of each antibiotic in combination with INF 401 using the assay described above in Example 2. After overnight incubation the MIC of each antibiotic was determined by visualization of bacterial growth. […] The MBC of each antibiotic was determined as described in Example 2 in the absence or presence of INF 401.

Assay [6] deals with S. aureus SA1199. The description is as above. The class given is cell-based, Staphylococcus aureus. Particulars: Table 2, plus 10 μg/ml INF 402, unit not given.
Assay [7] has as its system S. aureus (SA1199). Particulars: vancomycin; Jeffrey et al., 1999; cited from earlier work.

Where two headings read alike, the source gives them in different places.

`O=C(N[C@H](CO)[C@H](O)c1ccc([N+](=O)[O-])cc1)C(Cl)Cl` [Chloramphenicol]: the “bactericidal concentration in the absence of INF 401 as multiple of MIC” value in assay [1] worked out at 2 ×MIC. For the same compound, the “effect of single agent on DNA integrity” value in assay [2] was “did not affect DNA integrity”. For the same compound, in assay [3], the “amount of ^55Fe accumulated by cells, single agent” value is 4,976 DPM. In addition, the “reduction in cell viability, antibiotic in combination with INF 401” value in assay [4] is given as 3 log10. In addition, the MIC (usually the lowest concentration found to suppress growth) came out at 8 µg/mL in assay [5] (Staphylococcus aureus, SA1199) and 8 µg/mL in assay [5] (Table 2, S. aureus SA1199, unit inferred). Further, the MBC (in general, the smallest concentration meeting the test's criterion for killing) in assay [5] (Staphylococcus aureus, SA1199, read-out: MBC^a = MBC in the absence of INF 401, Table 1, S. aureus SA1199, unit inferred) is over 64 µg/mL; in assay [5] (Staphylococcus aureus, SA1199, read-out: MBC^a = MBC in the absence of INF 401, Table 2, S. aureus SA1199, unit inferred), over 64 µg/mL. Further, the “MBC^b = MBC in the presence of 5 μg/ml of INF 401” value in assay [5] (Table 1, S. aureus SA1199, plus 5 μg/ml INF 401, unit not given) amounted to 4. The “MBC^b = MBC in the presence of 10 μg/ml of INF 402” value in assay [6] amounted to 8.

On to `CN[C@H](CC(C)C)C(=O)N[C@H]1C(=O)N[C@@H](CC(N)=O)C(=O)N[C@H]2C(=O)N[C@H]3C(=O)N[C@H](C(=O)N[C@H](C(=O)O)c4cc(O)cc(O)c4-c4cc3ccc4O)[C@H](O)c3ccc(c(Cl)c3)Oc3cc2cc(c3O[C@@H]2O[C@H](CO)[C@@H](O)[C@H](O)[C@H]2O[C@H]2C[C@](C)(N)[C@H](O)[C@H](C)O2)Oc2ccc(cc2Cl)[C@H]1O` [vancomycin], for which the “time to decrease the viability of S. aureus by 1000-fold” value in assay [7] was 4 to 8 h.
